Reference: patent publication US20080096894A1, “Anti-Bacterial Compounds” (ASTON UNIVERSITY, priority 2005, published 2008)
≈ marks a conversion by molar mass, not a printed value. Like-named read-outs stand apart in the source and are kept apart here.

Assays:
[1] = system: MRSA; assay: MIC, agar dilution, multipoint inoculator; type: cell-based, methicillin-resistant Staphylococcus aureus
Protocol: (§1) This activity was measured using a multipoint inoculator method as follows. The MIC for each compound was measured using an agar dilution method (Onda, H., et al., Int. J. Antimicrob. Agents. 18, 263 (2001)) (Mueller Hinton agar) by means of a multipoint inoculator delivering 10^4 colony forming units per spot.
‘Staph’ refers to the reference strain of S. aureus (NCTC 6571). A tick in the MRSA column refers to a positive zone against MRSA strain 96-7474, and the MIC range (in μg/ml) which follows is that found against a panel of ten MRSA strains. Where MIC values are given for MRSA, these are stated as a range of values, as testing was carried out on a panel of clinical isolates.

[2] = system: human mononuclear leucocytes (MNL, white blood cells); assay: direct leucocyte toxicity, tryptan blue exclusion, 18 hours; type: cell-based; settings: for % Leucocyte Death: human, 18 h
Protocol: The in vitro assay used human mononuclear leucocytes (MNL, white blood cells) which were incubated with the test compound for 18 hours and cell death determined by tryptan blue exclusion (tryptan blue is a dye, which stains dead cells, whilst living cells extrude it).
The toxicity of 4PYcq and the aldehyde cq and pyridine-4-carboxamidrazone precursors were assessed using the same in vitro assay with human mononuclear leucocytes as that described above. The toxicity of related compounds, 2-hydroxybenzylidene-pyridine-2-carboxamidrazone 4PYbw and benzylidenepyridine-2-carboxamidrazone 4PYaa were also examined.

[3] = system: S. aureus; assay: MIC, agar dilution, multipoint inoculator; type: cell-based, Staphylococcus aureus; settings: upper value of MIC reading
Protocol: as §1

[4] = system: S. epidemisis; assay: MIC, agar dilution, multipoint inoculator; type: cell-based, Staphylococcus epidermidis; settings: upper value of MIC reading
Protocol: as §1

[5] = system: E. faecium; assay: MIC, agar dilution, multipoint inoculator; type: cell-based, Enterococcus faecium; settings: upper value of MIC reading
Protocol: as §1

[6] = system: S. haemolyticus; assay: MIC, agar dilution, multipoint inoculator; type: cell-based; settings: S. haemolyticus Isolate 1; upper value of MIC reading
Protocol: as §1

[7] = system: S. maltophilia; assay: MIC, agar dilution, multipoint inoculator; type: cell-based; settings: S. maltophilia NCTC 10257; upper value of MIC reading
Protocol: as §1

[8] = system: E. faecalis; assay: MIC, agar dilution, multipoint inoculator; type: cell-based; settings: upper value of MIC reading
Protocol: as §1

[9] = system: S. aboni; assay: MIC, agar dilution, multipoint inoculator; type: cell-based; settings: S. aboni NCTC 6017; upper value of MIC reading
Protocol: as §1

[10] = MRSA Isolate 1, upper value of MIC reading, in µg/mL
[11] = MRSA Isolate 2, upper value of MIC reading, in µg/mL
[12] = MRSA Isolate 3, upper value of MIC reading, in µg/mL
[13] = MRSA Isolate 4, upper value of MIC reading, in µg/mL
[14] = MRSA Isolate 5, upper value of MIC reading, in µg/mL
[15] = MRSA Isolate 6, upper value of MIC reading, in µg/mL
[16] = MRSA Isolate 7, upper value of MIC reading, in µg/mL
[17] = MRSA Isolate 8, upper value of MIC reading, in µg/mL
[18] = MRSA Isolate 9, upper value of MIC reading, in µg/mL
[19] = MRSA Isolate 10, upper value of MIC reading, in µg/mL
[20] = panel of ten MRSA strains (clinical isolates)

CCC(C)(C)c1ccc(/C=N/N=C(\N)c2ccccn2)cc1 [Compound 2PYaf]
MIC ([1]; Staphylococcus aureus, MRSA, 18 h, panel of ten MRSA strains (clinical isolates), read-out: MRSA MIC range): > 256 µg/mL
direct MNL toxicity (in words) [2]: indistinguishable from the background levels
% Leucocyte Death ([2]; 1 mM): 3.1 ± 1.0%

N/C(=N\N=C\c1ccccc1OCc1ccccc1)c1ccccn1 [Compound 2PYbe]
direct MNL toxicity (in words) [2]: indistinguishable from the background levels
% Leucocyte Death ([2]; 0.1 mM): 5.1 ± 4.1%

N/C(=N\N=C\c1ccccc1Sc1ccc(Cl)cc1)c1ccccn1 [Compound 2PYeh]
direct MNL toxicity (in words) [2]: indistinguishable from the background levels
% Leucocyte Death ([2]; 0.1 mM): 3.7 ± 2.6%

N=C(NN=Cc1ccccc1)c1ccccn1 [Compound 4PYaa, benzylidenepyridine-2-carboxamidrazone]
direct MNL toxicity (in words) [2]: only mildly toxic in comparison

CN(C)CCCOc1ccc(C=NN=C(N)c2ccc3ccccc3n2)cc1 [QNds]
MIC ([3]; S. aureus Cowan 1): 128 µg/mL (≈ 341 µM)
MIC ([3]; S. aureus NCTC 6571): 128 µg/mL (≈ 341 µM)
MIC ([3]; S. aureus NCTC 10788): 128 µg/mL (≈ 341 µM)
MIC ([4]; S. epidemisis Isolate 1): 256 µg/mL (≈ 682 µM)
MIC ([4]; S. epidemisis NCTC 11047): 256 µg/mL (≈ 682 µM)
MIC [1, 10]: 64
MIC [1, 11]: 64
MIC [1, 12]: 64
MIC [1, 13]: 64
MIC [1, 14]: 64
MIC [1, 15]: 64
MIC [1, 16]: 64
MIC [1, 17]: 64
MIC [1, 18]: 64
MIC [1, 19]: 64
MRSA MIC range [1, 20]: 32 to 128 µg/mL
MIC ([5]; E. faecium ACTCC 10541): 128 µg/mL (≈ 341 µM)
MIC ([5]; E. faecium NCTC 7171): 64 µg/mL (≈ 170 µM)
MIC [6]: 256 µg/mL (≈ 682 µM)
MIC [7]: 256 µg/mL (≈ 682 µM)
MIC ([8]; E. faecalis EBH1): 128 µg/mL (≈ 341 µM)
MIC ([8]; E. faecalis Isolate 1): 128 µg/mL (≈ 341 µM)
MIC ([8]; E. faecalis Isolate 2): 128 µg/mL (≈ 341 µM)
MIC ([8]; E. faecalis Isolate 3): 128 µg/mL (≈ 341 µM)
MIC ([8]; E. faecalis Isolate 4): 128 µg/mL (≈ 341 µM)
MIC ([8]; E. faecalis Isolate 5): 64 µg/mL (≈ 170 µM)
MIC ([8]; E. faecalis NCTC 5957): 64 µg/mL (≈ 170 µM)

CC(C)(C)c1ccc(/C=N/N=C(\N)c2ccccn2)cc1 [Compound 2PYae]
direct MNL toxicity (in words) [2]: indistinguishable from the background levels
% Leucocyte Death ([2]; 0.1 mM): 1.1 ± 1.0%

NC(=NN=Cc1cc(O)c(O)cc1O)c1cccnc1 [Compound 3PYcc]
MIC ([3]; S. aureus Cowan 1): 256 µg/mL (≈ 940 µM)
MIC ([3]; S. aureus NCTC 6571): 256 µg/mL (≈ 940 µM)
MIC ([3]; S. aureus NCTC 10788): 256 µg/mL (≈ 940 µM)
MIC ([4]; S. epidemisis NCTC 11047): 32 µg/mL (≈ 118 µM)
MIC [1, 10]: 256
MIC [1, 11]: 256
MIC [1, 12]: 256
MIC [1, 13]: 256
MIC [1, 14]: 256
MIC [1, 15]: 256
MIC [1, 16]: 256
MIC [1, 17]: 256
MIC [1, 18]: 256
MIC [1, 19]: 256
MRSA MIC range [1, 20]: 128 to 256 µg/mL
MIC ([5]; E. faecium NCTC 7171): 256 µg/mL (≈ 940 µM)
MIC [9]: 256 µg/mL (≈ 940 µM)
MIC ([8]; E. faecalis Isolate 1): 256 µg/mL (≈ 940 µM)
MIC ([8]; E. faecalis Isolate 2): 256 µg/mL (≈ 940 µM)
MIC ([8]; E. faecalis Isolate 4): 256 µg/mL (≈ 940 µM)
MIC ([8]; E. faecalis Isolate 5): 128 µg/mL (≈ 470 µM)
MIC ([8]; E. faecalis NCTC 5957): 256 µg/mL (≈ 940 µM)

CCC(C)(C)c1ccc(C=O)cc1 [af]
% Leucocyte Death ([2]; 1 mM): 5.5 ± 3.0%
